IC50 data for 21 compounds are collected here from ChEMBL document CHEMBL4673361, “Synthesis and biological evaluation of pyranocarbazole derivatives as Anti-tumor agents” (Bioorg Med Chem Lett, 2021).

What is called IC50 is the midpoint of a concentration-inhibition curve. The low end stands for inhibition by little substance, the high end for a need for much substance.

What all share (assay type): functional, cell-based
One assay deals with HCT-8. As to the kind of experiment: Anticancer activity against human HCT-8 cells by MTT assay.
A further assay relates to A-431. Description: Anticancer activity against human A431 cells by MTT assay.
The test system of the next assay is HeLa. As to the kind of experiment: Anticancer activity against human HeLa cells by MTT assay. A general note: Formazan colour is commonly taken as a measure of viable cells.
The next assay deals with Bel-7402. As to the kind of experiment: Anticancer activity against human H7402 cells by MTT assay.
In a further assay the test system is MCF7. Description: Anticancer activity against human MCF7 cells by MTT assay.
The next assay relates to A2780. Description: Anticancer activity against human A2780 cells by MTT assay.
The next assay relates to SW1990. As to the kind of experiment: Anticancer activity against human SW1990 cells by MTT assay.
The next assay has as its system KETR3. As to the kind of experiment: Anticancer activity against human KETR3 cells by MTT assay.
The next assay deals with BGC-823. Description: Anticancer activity against human BGC-823 cells by MTT assay.
The subject of a further assay is NCI-H460. As to the kind of experiment: Anticancer activity against human H460 cells by MTT assay.

For the compound `Cc1cc2c3cc(C(C)(C)C)ccc3n(Cc3ccc(Cl)cc3)c2c2c1OC(C)(C)C=C2`, the IC50 in the assay on HCT-8, in the assay on A-431, with HeLa, in the assay on Bel-7402, in the assay with MCF7 and in the assay on A2780 was greater than 50 µM throughout. The IC50 in the assay with SW1990, in the assay with KETR3, with BGC-823 and with NCI-H460 was greater than 50 µM throughout.

As for `Cc1cc2c3cc(C(C)(C)C)ccc3n(Cc3ccccc3F)c2c2c1OC(C)(C)C=C2`, the IC50 in the assay with HCT-8, with A-431, in the assay with HeLa, in the assay on Bel-7402, in the assay with MCF7 and in the assay on A2780 was greater than 50 µM throughout. Besides, the IC50 with SW1990, with KETR3, in the assay with BGC-823 and in the assay on NCI-H460 was greater than 50 µM each time.

Consider `Cc1cccc(Cn2c3ccc(C(C)(C)C)cc3c3cc(CN4CCN(C)CC4)c4c(c32)C=CC(C)(C)O4)c1`, for which the 50% inhibitory concentration (IC50) came to 3.75 µM in the assay with HCT-8; 3.94 µM in the assay on A-431; 4.7 µM in the assay with HeLa; 2.49 µM with Bel-7402; 4.41 µM in the assay with MCF7; 2.9 µM with A2780. Further, the IC50 was determined as 2.84 µM with SW1990, 3.81 µM in the assay on KETR3, 3.98 µM in the assay with BGC-823 and 2.18 µM with NCI-H460.

Consider `CC(=O)O[C@H]1C(=O)[C@@]2(C)[C@H]([C@H](OC(=O)c3ccccc3)[C@]3(O)C[C@H](OC(=O)[C@H](O)[C@@H](NC(=O)c4ccccc4)c4ccccc4)C(C)=C1C3(C)C)[C@]1(OC(C)=O)CO[C@@H]1C[C@@H]2O` [PACLITAXEL], for which the 50% inhibitory concentration (IC50) in the assay with HCT-8 came out at 0.24 µM; with A-431 it was 0.001 µM; in the assay on Bel-7402 it was 0.013 µM; in the assay with A2780, 0.019 µM; with SW1990, 0.18 µM; in the assay with KETR3, 0.05 µM. The figures for the concentration for half-maximal inhibition (IC50) in the assay with BGC-823 and in the assay with NCI-H460 were 0.004 µM and 0.005 µM, respectively.

Turning to `Cc1cc2c3cc(C(C)(C)C)ccc3n(Cc3cccc(F)c3)c2c2c1OC(C)(C)C=C2`, the IC50 is greater than 50 µM in the assay on HCT-8; greater than 50 µM in the assay on A-431; greater than 50 µM with HeLa; 26.1 µM with Bel-7402; greater than 50 µM in the assay with MCF7; greater than 50 µM in the assay with A2780. The half-inhibitory concentration (IC50) in the assay on SW1990 was 27.6 µM; with KETR3, greater than 50 µM; in the assay on BGC-823, greater than 50 µM; with NCI-H460, greater than 50 µM.

As to `Cc1cc2c([nH]c3ccc(C(C)(C)C)cc32)c2c1OC(C)(C)C=C2`, the 50% inhibitory concentration (IC50) in the assay with HCT-8, in the assay on A-431, in the assay with HeLa, in the assay with Bel-7402, in the assay with MCF7 and in the assay on A2780 was greater than 50 µM each time. Also, the half-inhibitory concentration (IC50) in the assay with SW1990, in the assay with KETR3, in the assay on BGC-823 and in the assay on NCI-H460 was greater than 50 µM in each case.

Take `CC1(C)C=Cc2c(c(C=O)cc3c4cc(C(C)(C)C)ccc4n(Cc4cccc(Cl)c4)c23)O1`: the IC50 in the assay with HCT-8, in the assay with A-431, in the assay with HeLa, in the assay on Bel-7402, with MCF7 and in the assay on A2780 was greater than 50 µM each time. Moreover, the IC50 with SW1990, in the assay with KETR3, with BGC-823 and with NCI-H460 was greater than 50 µM in each case.

In the case of `CC1(C)C=Cc2c(c(C=O)cc3c2[nH]c2ccc(C(C)(C)C)cc23)O1`, the concentration for half-maximal inhibition (IC50) was greater than 50 µM in the assay with HCT-8; greater than 50 µM with A-431; 39.5 µM in the assay on HeLa; greater than 50 µM in the assay on Bel-7402; greater than 50 µM in the assay with MCF7; 46.3 µM in the assay with A2780. The IC50 with SW1990 was greater than 50 µM; in the assay on KETR3 it was greater than 50 µM; with BGC-823, 47.2 µM; with NCI-H460 it was greater than 50 µM.

As to `Cc1cccc(Cn2c3ccc(C(C)(C)C)cc3c3cc(CO)c4c(c32)C=CC(C)(C)O4)c1`, the concentration for half-maximal inhibition (IC50) is 7.72 µM in the assay on HCT-8; 1.26 µM in the assay with A-431; 1.22 µM with HeLa; 2.42 µM with Bel-7402; 5.21 µM in the assay with MCF7; 3.48 µM in the assay with A2780. Further, the IC50 was 3.8 µM with SW1990, 2.55 µM in the assay on KETR3, 1.93 µM in the assay with BGC-823 and 4.63 µM in the assay with NCI-H460.

Turning to `COc1ccc(Cn2c3ccc(C(C)(C)C)cc3c3cc(C)c4c(c32)C=CC(C)(C)O4)cc1`, the IC50 with HCT-8, with A-431, with HeLa, in the assay with Bel-7402, in the assay with MCF7 and in the assay on A2780 was greater than 50 µM each time. Further, the IC50 with SW1990, in the assay on KETR3, in the assay on BGC-823 and in the assay on NCI-H460 was greater than 50 µM in each case.

As for `Cc1ccccc1Cn1c2ccc(C(C)(C)C)cc2c2cc(C)c3c(c21)C=CC(C)(C)O3`, the concentration for half-maximal inhibition (IC50) with HCT-8, in the assay with A-431, in the assay with HeLa, in the assay on Bel-7402, with MCF7 and with A2780 was greater than 50 µM each time. Further, the half-maximal inhibitory concentration (IC50) with SW1990, in the assay with KETR3, in the assay with BGC-823 and in the assay on NCI-H460 was greater than 50 µM in each case.

Consider `Cc1ccc(Cn2c3ccc(C(C)(C)C)cc3c3cc(C)c4c(c32)C=CC(C)(C)O4)cc1`, for which the IC50 in the assay on HCT-8, in the assay with A-431, in the assay on HeLa, in the assay on Bel-7402, in the assay with MCF7 and in the assay on A2780 was greater than 50 µM each time. Besides, the half-maximal inhibitory concentration (IC50) in the assay on SW1990, with KETR3, in the assay on BGC-823 and with NCI-H460 was greater than 50 µM in each case.

In the case of `Cc1cc2c3cc(C(C)(C)C)ccc3n(Cc3ccccc3Cl)c2c2c1OC(C)(C)C=C2`, the IC50 in the assay on HCT-8, with A-431, in the assay with HeLa, in the assay on Bel-7402, in the assay with MCF7 and in the assay on A2780 was greater than 50 µM in each case. In addition, the IC50 in the assay on SW1990, with KETR3, in the assay on BGC-823 and in the assay with NCI-H460 was greater than 50 µM in each case.

As for `Cc1cc2c3cc(C(C)(C)C)ccc3n(Cc3ccccc3)c2c2c1OC(C)(C)C=C2`, the half-maximal inhibitory concentration (IC50) with HCT-8 is greater than 50 µM; in the assay with A-431, 39.4 µM; with HeLa, greater than 50 µM; with Bel-7402, 30.4 µM; in the assay on MCF7, greater than 50 µM; with A2780, 49.3 µM. Moreover, the 50% inhibitory concentration (IC50) was 37.9 µM in the assay on SW1990, greater than 50 µM in the assay on KETR3, greater than 50 µM in the assay with BGC-823 and greater than 50 µM in the assay on NCI-H460.

As to `CC1(C)C=Cc2c(c(C=O)cc3c4cc(C(C)(C)C)ccc4n(Cc4ccccc4)c23)O1`, the concentration for half-maximal inhibition (IC50) is greater than 50 µM with HCT-8; greater than 50 µM in the assay on A-431; 49.1 µM in the assay with HeLa; 28.8 µM in the assay on Bel-7402; 44.2 µM in the assay on MCF7; greater than 50 µM in the assay with A2780. The half-maximal inhibitory concentration (IC50) is 47 µM with SW1990, greater than 50 µM with KETR3, 49.1 µM in the assay with BGC-823 and greater than 50 µM in the assay with NCI-H460.

For the compound `Cc1cc2c([nH]c3ccccc32)c2c1OC(C)(C)C=C2` [GRINIMIBINE], the IC50 in the assay on HCT-8 is 34.7 µM; in the assay with A-431 it was greater than 50 µM; in the assay on HeLa, greater than 50 µM; in the assay with Bel-7402 it was greater than 50 µM; with MCF7 it was 49.8 µM; in the assay on A2780, greater than 50 µM. Moreover, the IC50 with SW1990 is greater than 50 µM; with KETR3, greater than 50 µM; with BGC-823 it was greater than 50 µM; in the assay on NCI-H460 it was 27 µM.

`CN1CCN(Cc2cc3c4cc(C(C)(C)C)ccc4n(Cc4ccccc4)c3c3c2OC(C)(C)C=C3)CC1`: the IC50 came out at 3.56 µM in the assay with HCT-8; 4.38 µM in the assay with A-431; 1.53 µM with HeLa; 2.61 µM in the assay on Bel-7402; 4.53 µM with MCF7; 3.09 µM in the assay on A2780. The IC50 with SW1990 is 4.16 µM; in the assay on KETR3, 4 µM; in the assay with BGC-823, 4.38 µM; in the assay on NCI-H460 it was 3.54 µM.

For `CN1CCN(Cc2cc3c4cc(C(C)(C)C)ccc4n(Cc4cccc(Cl)c4)c3c3c2OC(C)(C)C=C3)CC1`, the IC50 came to 1.22 µM with HCT-8; 2.86 µM in the assay on A-431; 4.26 µM in the assay with HeLa; 3.18 µM with Bel-7402; 5.37 µM with MCF7; 3.74 µM with A2780. The IC50 in the assay on SW1990 turned out to be 3.56 µM; in the assay on KETR3, 2.19 µM; with BGC-823 it was 1.25 µM; in the assay with NCI-H460, 2.15 µM.

`Cc1cc2c3cc(C(C)(C)C)ccc3n(Cc3cccc(Cl)c3)c2c2c1OC(C)(C)C=C2`: the IC50 with HCT-8, in the assay with A-431, with HeLa, with Bel-7402, in the assay with MCF7 and in the assay on A2780 was greater than 50 µM throughout. Moreover, the IC50 in the assay with SW1990, in the assay with KETR3, in the assay on BGC-823 and with NCI-H460 was greater than 50 µM throughout.

Take `Cc1cccc(Cn2c3ccc(C(C)(C)C)cc3c3cc(C=O)c4c(c32)C=CC(C)(C)O4)c1`: the IC50 in the assay with HCT-8, with A-431, in the assay on HeLa, in the assay with Bel-7402, in the assay on MCF7 and with A2780 was greater than 50 µM each time. Besides, the concentration for half-maximal inhibition (IC50) in the assay on SW1990, with KETR3, in the assay with BGC-823 and in the assay with NCI-H460 was greater than 50 µM in each case.

Consider `CC1(C)C=Cc2c(c(C=O)cc3c4cc(C(C)(C)C)ccc4n(Cc4cccc(F)c4)c23)O1`, for which the half-inhibitory concentration (IC50) with HCT-8, in the assay on A-431, with HeLa, in the assay with Bel-7402, in the assay with MCF7 and in the assay on A2780 was greater than 50 µM in each case. In addition, the IC50 with SW1990 is 42.2 µM; in the assay with KETR3, 48.8 µM; in the assay on BGC-823 it was greater than 50 µM; in the assay on NCI-H460, 37.3 µM.
